The values below come from ChEMBL document CHEMBL4017512 (J Med Chem, 2017).

A value given as a limit tells only on which side of the number the result lay.

Data set [1] has as its system HCT-116. Nature of the data set: Antiproliferative activity against human HCT116 cells after 72 hrs by phosphatase assay. Conditions: HCT-116, 72 h. The format is functional, cell-based.
Data set [2] is described as follows: Cytotoxicity against human HCT116/VM46 cells assessed as reduction in cell viability after 72 hrs by phosphatase assay. Conditions: HCT-116/VM46, 72 h. It counts as cell-based.
Data set [3] has as its system L1210. Nature of the data set: Antiproliferative activity against mouse L1210 cells after 72 hrs by phosphatase assay. It counts as functional, cell-based. Conditions: L1210, 72 h.
Data set [4] is described as follows: Displacement of BODIPY-labeled vinblastine from tubulin (unknown origin) at 18 uM after 60 mins by fluorescence assay relative to control. Conditions: Homo sapiens.
A short description of data set [5]: Antiproliferative activity against human HCT116/VP35 cells after 72 hrs by phosphatase assay. It counts as functional, cell-based. Conditions: HCT-116, 72 h.
Data set [6] relates to LNCaP. The data set can be described thus: Antiproliferative activity against human LNCAP cells after 72 hrs by phosphatase assay. It counts as functional, cell-based.
Data set [7] has as its system LS174T. The data set can be described thus: Antiproliferative activity against human LS174T cells after 72 hrs by phosphatase assay. The format is functional, cell-based.
The subject of data set [8] is MDA-MB-468. The data set can be described thus: Antiproliferative activity against human MDA-MB-468 cells after 72 hrs by phosphatase assay. It counts as functional, cell-based. Conditions: MDA-MB-468, 72 h.
Data set [9] relates to NCI-H520. Nature of the data set: Antiproliferative activity against human NCI-H520 cells after 72 hrs by phosphatase assay. The format is functional, cell-based. Conditions: NCI-H520, 72 h.
Data set [10] has as its system PA-1. The data set can be described thus: Antiproliferative activity against human PA1 cells after 72 hrs by phosphatase assay. It counts as functional, cell-based. Conditions: PA-1, 72 h.
The nature of data set [11]: Cytotoxicity against human HCT116/VM46 cells assessed as reduction in cell viability. The format is cell-based. Conditions: HCT-116/VM46.
Data set [12] has as its system L1210. Nature of the data set: Antiproliferative activity against mouse L1210 cells. It counts as functional, cell-based.
The subject of data set [13] is HCT-116. The data set can be described thus: Antiproliferative activity against human HCT116 cells. It counts as functional, cell-based.
In data set [14] the target is MDR1 (ABCB1, P-gp) ATPase (Homo sapiens, UniProt P08183). Nature of the data set: Inhibition of MDR1 (unknown origin) ATPase activity expressed in sf9 cell membranes assessed as residual activity at 20 uM using ATP as substrate preincubated for 5 mins followed by substrate addition measured after 20 mins by spectrophotometric method relative to control. Conditions: Sf9 cell membranes expressing MDR1, probe ATP, read-out: Activity.
Sequence of MDR1 (ABCB1, P-gp) ATPase (P08183 whole entry): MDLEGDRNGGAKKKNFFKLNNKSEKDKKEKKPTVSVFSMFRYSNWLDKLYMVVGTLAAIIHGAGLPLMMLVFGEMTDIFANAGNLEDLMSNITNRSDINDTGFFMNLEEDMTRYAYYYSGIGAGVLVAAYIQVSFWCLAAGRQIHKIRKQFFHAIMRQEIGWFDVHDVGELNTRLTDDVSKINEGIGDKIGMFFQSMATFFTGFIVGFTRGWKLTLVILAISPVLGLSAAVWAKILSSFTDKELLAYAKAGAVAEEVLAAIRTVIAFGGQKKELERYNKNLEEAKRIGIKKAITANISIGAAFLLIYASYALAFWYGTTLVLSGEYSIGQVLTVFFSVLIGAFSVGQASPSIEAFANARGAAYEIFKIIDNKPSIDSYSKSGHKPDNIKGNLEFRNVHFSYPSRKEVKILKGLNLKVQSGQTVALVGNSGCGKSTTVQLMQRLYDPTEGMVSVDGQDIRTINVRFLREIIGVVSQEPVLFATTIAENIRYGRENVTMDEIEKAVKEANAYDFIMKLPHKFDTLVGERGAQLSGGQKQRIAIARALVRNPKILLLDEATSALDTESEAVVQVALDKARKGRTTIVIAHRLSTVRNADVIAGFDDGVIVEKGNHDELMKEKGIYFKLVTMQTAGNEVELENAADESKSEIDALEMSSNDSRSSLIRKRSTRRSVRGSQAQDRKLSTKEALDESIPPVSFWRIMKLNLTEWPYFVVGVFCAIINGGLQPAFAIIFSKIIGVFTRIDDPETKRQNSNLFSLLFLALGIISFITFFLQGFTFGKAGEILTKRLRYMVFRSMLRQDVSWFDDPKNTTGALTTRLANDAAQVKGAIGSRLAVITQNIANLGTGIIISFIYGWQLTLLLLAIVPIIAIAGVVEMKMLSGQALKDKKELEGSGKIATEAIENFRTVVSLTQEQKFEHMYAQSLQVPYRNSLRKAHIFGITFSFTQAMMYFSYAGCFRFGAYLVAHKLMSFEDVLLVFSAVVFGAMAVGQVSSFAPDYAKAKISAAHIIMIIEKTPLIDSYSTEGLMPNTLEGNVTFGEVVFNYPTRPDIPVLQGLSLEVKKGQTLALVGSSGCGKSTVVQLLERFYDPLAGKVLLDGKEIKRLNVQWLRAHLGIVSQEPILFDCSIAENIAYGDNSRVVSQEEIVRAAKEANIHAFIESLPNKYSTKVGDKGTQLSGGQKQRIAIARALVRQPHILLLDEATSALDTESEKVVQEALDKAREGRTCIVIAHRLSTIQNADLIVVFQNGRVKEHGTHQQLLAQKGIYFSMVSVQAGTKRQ

Data set [15] can be described thus: Apparent permeability from basolateral to apical side in human Caco2 cells. It counts as ADME, cell-based. Conditions: Caco-2. (Caco-2 monolayers are a common model of the intestinal barrier.)

Broadly, the IC50 is the midpoint of a concentration-inhibition curve. The inhibition is the percentage by which the read-out fell short of the control. For `CC[C@]1(NC(=O)c2ccc3c(c2)CCCO3)C[C@H]2CN(CCc3c([nH]c4ccccc34)[C@@](C(=O)OC)(c3cc4c(cc3OC)N(C)[C@H]3[C@@](O)(C(=O)OC)[C@H](OC(C)=O)[C@]5(CC)C=CCN6CC[C@]43[C@@H]65)C2)C1`, the IC50 in [1] is 0.5 to 0.7 nM; in data set [2], 1.8 to 4.9 nM; in data set [3], 0.4 nM; in [5], 1.4 nM; in [6], 0.8 nM; in data set [7] it was 2.4 nM. For the same compound, the half-inhibitory concentration (IC50) in data set [8] was 1.2 nM; in [9] it was 0.8 nM; in [10] it was 1 nM. In data set [4], this compound showed an inhibition of 98%.

On to `CC[C@]1(NC(=O)c2ccc(N(C)C)cc2)C[C@H]2CN(CCc3c([nH]c4ccccc34)[C@@](C(=O)OC)(c3cc4c(cc3OC)N(C)[C@H]3[C@@](O)(C(=O)OC)[C@H](OC(C)=O)[C@]5(CC)C=CCN6CC[C@]43[C@@H]65)C2)C1`, for which the IC50 in data set [2] was determined as 4.1 nM; in [3] it was 0.18 nM. In addition, the inhibition in data set [4] was 88%.

Consider `CC[C@]1(NC=O)C[C@H]2CN(CCc3c([nH]c4ccccc34)[C@@](C(=O)OC)(c3cc4c(cc3OC)N(C)[C@H]3[C@@](O)(C(=O)OC)[C@H](OC(C)=O)[C@]5(CC)C=CCN6CC[C@]43[C@@H]65)C2)C1`, for which the concentration for half-maximal inhibition (IC50) in data set [11] is 6500 nM; in [12], 65 nM.

Turning to `CC[C@]1(NC(=O)C(F)(F)F)C[C@H]2CN(CCc3c([nH]c4ccccc34)[C@@](C(=O)OC)(c3cc4c(cc3OC)N(C)[C@H]3[C@@](O)(C(=O)OC)[C@H](OC(C)=O)[C@]5(CC)C=CCN6CC[C@]43[C@@H]65)C2)C1`, the figures for the IC50 in data set [13], in data set [11] and in data set [12] were 690 nM, 8100 nM and 660 nM, respectively.

For the compound `CC[C@]1(NC(=O)c2ccccc2)C[C@H]2CN(CCc3c([nH]c4ccccc34)[C@@](C(=O)OC)(c3cc4c(cc3OC)N(C)[C@H]3[C@@](O)(C(=O)OC)[C@H](OC(C)=O)[C@]5(CC)C=CCN6CC[C@]43[C@@H]65)C2)C1`, the half-maximal inhibitory concentration (IC50) in [1] amounted to 0.8 nM; in data set [2], 20 nM; in [3], 1.1 nM. This compound had an inhibition in [4] of 72%.

As usually defined, the Papp B→A is how fast a substance crosses the layer from the basolateral side. `CC[C@]1(O)C[C@@H]2CN(CCc3c([nH]c4ccccc34)[C@@](C(=O)OC)(c3cc4c(cc3OC)N(C)[C@H]3[C@@](O)(C(=O)OC)[C@H](OC(C)=O)[C@]5(CC)C=CCN6CC[C@]43[C@@H]65)C2)C1` [VINBLASTINE]: the IC50 is 110 to 600 nM in data set [2]; 37 nM in data set [5]; 5.1 nM in data set [6]; 20 nM in data set [7]; 14 nM in data set [8]. In addition, in data set [14], the activity at 20 min, 20 µM came out at 87%. In data set [4], the inhibition was in the range of 50 to 61%. Also, the basolateral-to-apical permeability (Papp B→A) in [15] was 38.2 ×10⁻⁶ cm/s.

As to `CC[C@]1(NC(=O)c2ccc(C#N)cc2)C[C@H]2CN(CCc3c([nH]c4ccccc34)[C@@](C(=O)OC)(c3cc4c(cc3OC)N(C)[C@H]3[C@@](O)(C(=O)OC)[C@H](OC(C)=O)[C@]5(CC)C=CCN6CC[C@]43[C@@H]65)C2)C1`, the IC50 in data set [1] is 3.1 nM; in [2] it was 60 nM; in [3] it was 4.4 nM. The inhibition in data set [4] was 56%.

`CC[C@]1(NC(C)=O)C[C@H]2CN(CCc3c([nH]c4ccccc34)[C@@](C(=O)OC)(c3cc4c(cc3OC)N(C)[C@H]3[C@@](O)(C(=O)OC)[C@H](OC(C)=O)[C@]5(CC)C=CCN6CC[C@]43[C@@H]65)C2)C1`: the IC50 in [11] worked out at 7500 nM; in [12], 65 nM.

In the case of `CC[C@]1(NC(=O)c2ccc(C)c(C)c2)C[C@H]2CN(CCc3c([nH]c4ccccc34)[C@@](C(=O)OC)(c3cc4c(cc3OC)N(C)[C@H]3[C@@](O)(C(=O)OC)[C@H](OC(C)=O)[C@]5(CC)C=CCN6CC[C@]43[C@@H]65)C2)C1`, the IC50 in data set [1] is 4.5 to 4.6 nM; in data set [2] it was 7.6 to 9 nM; in data set [3] it was 3 nM; in [5], 5.8 nM; in data set [6], 3 nM; in [7], 6.1 nM. Also, the figures for the concentration for half-maximal inhibition (IC50) in data set [8], in data set [9] and in [10] were 4.8 nM, 1.4 nM and 2.3 nM, respectively. The same compound showed an inhibition in [4] of 67%.

With `CC[C@]1(NC(=O)c2ccc3c(c2)CCCC3)C[C@H]2CN(CCc3c([nH]c4ccccc34)[C@@](C(=O)OC)(c3cc4c(cc3OC)N(C)[C@H]3[C@@](O)(C(=O)OC)[C@H](OC(C)=O)[C@]5(CC)C=CCN6CC[C@]43[C@@H]65)C2)C1`, the concentration for half-maximal inhibition (IC50) in data set [1] is 4.9 nM; in data set [2], 8.7 to 14 nM; in [3] it was 3.3 nM; in [5], 6.2 nM; in data set [6] it was 3.9 nM; in data set [7] it was 6.6 nM. The IC50 in [8] came to 6.3 nM; in data set [9], 1.8 nM; in data set [10], 2.6 nM. Besides, the activity at 20 min, 20 µM in data set [14] is 0%. The compound further came in with an inhibition in data set [4] of 63%. In addition, the basolateral-to-apical permeability (Papp B→A) in data set [15] stood at 2 ×10⁻⁶ cm/s.

`CC(=O)O[C@H]1C(=O)[C@@]2(C)[C@H]([C@H](OC(=O)c3ccccc3)[C@]3(O)C[C@H](OC(=O)[C@H](O)[C@@H](NC(=O)c4ccccc4)c4ccccc4)C(C)=C1C3(C)C)[C@]1(OC(C)=O)CO[C@@H]1C[C@@H]2O` [PACLITAXEL]: the IC50 in data set [1] is 4.1 nM; in data set [2] it was above 200 nM; in [5], 6.3 nM; in data set [6] it was 1.9 nM; in [7], 9.5 nM; in [8] it was 5.4 nM. Further, the half-maximal inhibitory concentration (IC50) in data set [9] came to 8.2 nM; in data set [10], 3 nM.

`CC[C@]1(NC(=O)c2ccc(CC(C)C)cc2)C[C@H]2CN(CCc3c([nH]c4ccccc34)[C@@](C(=O)OC)(c3cc4c(cc3OC)N(C)[C@H]3[C@@](O)(C(=O)OC)[C@H](OC(C)=O)[C@]5(CC)C=CCN6CC[C@]43[C@@H]65)C2)C1`: the IC50 in data set [1] came out at 10 nM; in data set [2] it was 65 nM; in data set [3], 25 nM.

Regarding `CC[C@]1(NC(=O)c2ccc3c(c2)C(C)(C)CCC3(C)C)C[C@H]2CN(CCc3c([nH]c4ccccc34)[C@@](C(=O)OC)(c3cc4c(cc3OC)N(C)[C@H]3[C@@](O)(C(=O)OC)[C@H](OC(C)=O)[C@]5(CC)C=CCN6CC[C@]43[C@@H]65)C2)C1`, the IC50 is 7.8 nM in data set [1], 50 nM in data set [2] and 7.4 nM in data set [3].

Consider `CC[C@]1(NC(=O)c2ccccc2OC)C[C@H]2CN(CCc3c([nH]c4ccccc34)[C@@](C(=O)OC)(c3cc4c(cc3OC)N(C)[C@H]3[C@@](O)(C(=O)OC)[C@H](OC(C)=O)[C@]5(CC)C=CCN6CC[C@]43[C@@H]65)C2)C1`, for which the IC50 in [1] turned out to be 10 nM; in data set [2] it was 100 nM; in [3], 30 nM.

`CC[C@]1(NC(=O)c2ccc(OC)c(OC)c2)C[C@H]2CN(CCc3c([nH]c4ccc(F)cc34)[C@@](C(=O)OC)(c3cc4c(cc3OC)N(C)[C@H]3[C@@](O)(C(=O)OC)[C@H](OC(C)=O)[C@]5(CC)C=CCN6CC[C@]43[C@@H]65)C2)C1`: the concentration for half-maximal inhibition (IC50) amounted to 0.08 nM in data set [1], 0.9 nM in data set [2] and 0.06 nM in data set [3].

For `CC[C@]1(NC(=O)c2ccc(C(C)C)cc2)C[C@H]2CN(CCc3c([nH]c4ccccc34)[C@@](C(=O)OC)(c3cc4c(cc3OC)N(C)[C@H]3[C@@](O)(C(=O)OC)[C@H](OC(C)=O)[C@]5(CC)C=CCN6CC[C@]43[C@@H]65)C2)C1`, the IC50 came out at 6.4 nM in [1], 13 nM in data set [2] and 5.4 nM in [3].

On to `CC[C@]1(NC(=O)c2ccc3nccnc3c2)C[C@H]2CN(CCc3c([nH]c4ccccc34)[C@@](C(=O)OC)(c3cc4c(cc3OC)N(C)[C@H]3[C@@](O)(C(=O)OC)[C@H](OC(C)=O)[C@]5(CC)C=CCN6CC[C@]43[C@@H]65)C2)C1`, for which the concentration for half-maximal inhibition (IC50) in data set [1] is 0.6 nM; in data set [2], 7.5 nM; in [3] it was 0.6 nM.

In the case of `CC[C@]1(NC(=O)C2CCN(C)CC2)C[C@H]2CN(CCc3c([nH]c4ccccc34)[C@@](C(=O)OC)(c3cc4c(cc3OC)N(C)[C@H]3[C@@](O)(C(=O)OC)[C@H](OC(C)=O)[C@]5(CC)C=CCN6CC[C@]43[C@@H]65)C2)C1`, the IC50 was found to be 4400 nM in data set [1], 6600 nM in [2] and 5300 nM in [3].

`CC[C@]1(NC(=O)c2ccc3c(c2)CCN3C(=O)OC(C)(C)C)C[C@H]2CN(CCc3c([nH]c4ccccc34)[C@@](C(=O)OC)(c3cc4c(cc3OC)N(C)[C@H]3[C@@](O)(C(=O)OC)[C@H](OC(C)=O)[C@]5(CC)C=CCN6CC[C@]43[C@@H]65)C2)C1`: the IC50 was found to be 15 nM in data set [1], 90 nM in [2] and 35 nM in data set [3].

Turning to `CC[C@]1(NC(=O)c2ccc(N(C)C(=O)OC(C)(C)C)cc2)C[C@H]2CN(CCc3c([nH]c4ccccc34)[C@@](C(=O)OC)(c3cc4c(cc3OC)N(C)[C@H]3[C@@](O)(C(=O)OC)[C@H](OC(C)=O)[C@]5(CC)C=CCN6CC[C@]43[C@@H]65)C2)C1`, the results for the 50% inhibitory concentration (IC50) in data set [1], in data set [2] and in data set [3] were 3.9 nM, 35 nM and 4.1 nM, respectively.
